Patent publication US9573960B2, “Glioblastoma inhibiting compounds and their use” (Life & Brain GmbH, priority 2011, dated 2017)

What was measured:
[1] = test system: patient-specific primary human glioblastoma cells (pGBMs); test: Pharmacodynamic analysis of GAA and GA, AlamarBlue (IMC50); type: cell-based
Procedure: To validate the results obtained from primary screening, these compounds were purchased from independent suppliers (FIG. 13). Pharmacodynamic analysis was conducted by determining the concentrations that decreased the metabolic activity of pGBMs to 50% control levels (IMC50). […] For further analysis, pGBMs were collected at five days following single-dose in vitro application of the respective compound.
(§1) Considering the cellular and genetic diversity that characterizes GBM, we next investigated GAA's pharmacological effect in 17 pGBM samples derived from 11 patients (see Table 2 for list of samples and patient data). […] Next, pair-wise comparison of GAA-pharmacodynamics was performed in pGBMs to stratify results according to key clinical constellations (Bredel et al., 2011; Glas et al., 2010; Simpson et al., 2006; Weller et al., 2010). Glioblastoma samples derived from (i) the tumor center vs. periphery region of the same patient, (ii) primary vs. recurrent disease of the same patient, (iii) MGMT-promoter hypermethylated vs. unmethylated tissue, (iv) p53 wild type vs. p53 mutated samples, as well as from (v) NFKBIA wild type vs. NFKBIA deleted genotypes.
For pharmacodynamic analysis, 5×10^4 cells were plated in 12-well-plates at 24 hours before application of compound-series. […] Experiments were performed in triplicates. IMC50 was defined as the compound concentration that reduced the metabolic activity by 50% compared to control conditions and determined via data analysis in GraphPad Prism 4.0.

[2] = test system: LN229, T98G, U87, U138, and U373 cells; test: Pharmacodynamic analysis in commercial glioma/GBM cell lines; type: cell-based; conditions: compared with pGBM IMC50's
Procedure: as §1
For pharmacodynamic analysis, 5×10^4 cells were plated in 12-well-plates at 24 hours before application of compound-series. AlamarBlue®-based analysis was conducted at 5 days post treatment. Experiments were performed in triplicates. IMC50 was defined as the compound concentration that reduced the metabolic activity by 50% compared to control conditions and determined via data analysis in GraphPad Prism 4.0.

[3] = test system: self-renewing, multipotent cells among pGBMs; test: Neurosphere assay after GA or GAA pre-treatment; type: cell-based, human; conditions: single pre-treatment, vital cells collected at day 5
Excerpt: In a next series of experiments we aimed to determine the influence of the compounds on the activity of tumor-initiating cells (TICs). TICs embody a severe functional consequence of intra-tumor heterogeneity as, at least in human glioblastoma, it is anticipated that they are represented by a small subpopulation of stem-like, i.e. self-renewing and multipotent cells (e.g. Sties and Rowitch, 2008; Zhou et al., 2009). In previous work, we established their frequencies in the range from 0.25 to 1% among culture passage 5-10 pGBMs (see Glas et al., 2010). To estimate potential compound-induced alterations to the pool of self-renewing and multipotent cells in pGBMs, the neurosphere assay (NSA) was applied as recently described (Scheffler et al., 2005; Glas et al., 2010). Heterogeneous pGBM samples (#'s 046, 078, 106) were exposed to the compounds, vital cells were collected at day 5, and processed under non-adherent conditions in the NSA (neurosphere assay, see methods).
The neurosphere assay was performed to estimate the frequency of self-renewing clonogenic cells according to established protocols (Glas et al., 2010; Scheffler et al., 2005). Neurospheres were quantified at 21 days in culture, triturated to a single cell suspension, and re-plated for analysis of the secondary and tertiary neurospheres. […]

[4] = test system: pGBMs (#046); test: Orthotopic xenotransplantation of pre-treated pGBMs; type: in vivo, Rag2Il2rg−/− mice; conditions: pGBMs pre-treated 5 days at IMC50, 10^6 cells into striatum, vs DMSO
Procedure: FIG. 18: Gambogig acid amide decreases the tumor-initiating potential of pGBMs. pGBMs (#046) were treated with IMC50 concentrations of the respective compounds for 5 days in vitro. […] surviving vital cells were subsequently collected and injected into the striatum of adult immunocompromised mice (n=5 for each experiment). (A) Kaplan-Meier curves show no significant survival advantage upon injection of pGBMs pre-treated with gambogic acid (dotted) vs. DMSO controls (solid).
Cells were harvested, counted and re-suspended in 0.1% DNase/PBS. Cellular viability was confirmed via trypan blue exclusion. 10^6 DMSO-control-, gambogic acid or gambogic acid amide-pretreated pGBMs were injected stereotactically into the striatum of 12 week old Rag2Il2rg^−/− mice (0.8 mm anterior, 2 mm lateral, 3 mm deep). Mice were monitored daily and euthanized upon presentation with signs of distress/neurological symptoms or significant weight loss. For subsequent histological analysis, brains were removed, cryoprotected, and serially cut on a cryostat (Leica) at 20 μm thickness. Every fifth section underwent routine H&E staining for histological analysis of tumor formation.

[5] = test system: CD133+ vs. CD133− pGBM cells; test: CD133+ vs CD133- pGBM cells, metabolic activity and cell confluency; type: cell-based, human; conditions: IMC50, 5 days after single exposure
Excerpt: FIG. 19: Preferred targeting of CD133^+ GBM cells by Gambogig acid amide. (A) FACS-based identification and sorting of CD133^+ subpopulations from pGBMs (#106, top; #058, bottom). Note the respective frequency of CD133^+ cells is indicated within the panel). (B) Relative metabolic activity and cell confluency of CD133-positive vs. CD133-negative pGBM cells determined at 5 days after single exposure of Gambogic acid (IMC50, top) and Gambogic acid amide (IMC50, bottom). Note the selective sensitivity of CD133^+ cells in response to application of Gambogic acid amide.
To further corroborate the cancer stem cell-specific inhibitory activity of GAA, we selected CD133-positive and -negative cell populations from pGBMs (FIG. 19). CD133^+ cells are known among glioblastoma samples to represent a minority of tumorigenic stem-like phenotypes (Singh et al., 2004). Comparative evaluation of the inhibitory effects induced by GAA and GA on CD133^+ vs. CD133^− pGBM cells confirmed our assumption.
For fluorescence-activated cell separation (FACS), cells were stained with CD133/2-PE or with CD133/2-APC (both 1:20; Miltenyi Biotech) and sorted on a BD FACS DiVa Cell Sorter (Becton Dickinson).

[6] = test system: four patient-specific primary GBM cultures; conditions: 1 μM
Procedure: Before screening, cell number was titrated for each cell line separately to ensure that cell proliferation remained in a linear-exponential phase throughout the experiment. 24 hours after seeding 2−3×10^3 cells/well into laminin/poly-L-ornithine coated 96-well plates, primary cultures were treated with 2 nM, 1 μM or 10 μM of each compound (stock solution 10 mM in DMSO). As a reference we treated cells with 50 μM and 500 μM temozolomide (TMZ, SigmaAldrich, Taufkirchen, Germany; stock solution of 100 mM in DMSO). Control cells were treated with 0.5-0.01% DMSO. Six days after application, cell viability was determined using the AlamarBlue® assay according to the manufacturers recommendations (Invitrogen, Karlsruhe, Germany). Fluorescence was measured using an Infinite200 microplate reader (Tecan, Crailsheim, Germany) at Xex=540 nm and Xem=590 nm. Experiments were performed in triplicates for each sample.
To identify cytotoxic and cytostatic compounds, we conducted in vitro drug-screening assays in four different patient-specific primary GBM cultures (see Table 1 for basic characterization of research specimens).
The compound library was screened at three different concentrations (10 μM, 1 μM, 2 nM). The relative metabolic activity was determined after a 5-day incubation with compounds. […] For reference, we applied 50 μM (reported plasma peak concentration) and 500 μM of temozolomide (TMZ, as described in Beier et al., 2008), the current standard chemotherapeutic GBM drug to our cells. […] However, “hits” in the setting of a primary screening were defined as a reduction of the relative metabolic activity under the level of 50% of DMSO-treated control cells.

## CC(C)=CCC[C@]1(C)C=Cc2c(O)c3c(c(CC=C(C)C)c2O1)O[C@]12C(=C[C@@H]4CC1C(C)(C)O[C@@]2(C/C=C(/C)C(N)=O)C4=O)C3=O [GAA, Gambogic acid amide]
[1]; FIG. 14A
  inhibition of the metabolic activity of pGBMs: effectively and to a comparable degree
[1]; day 1, 2 or 5 following exposure, versus Gambogic acid
  time of induction of inhibitory activity: earlier time point
[1]; pGBM #106, day 5
  IC50: 514 nM
[1]; pGBM #132, day 5
  IC50: 78 nM
[1]; triplicate analysis for each sample
  inhibitory activity compared with GA (dose-response): consistently at lower concentrations
[2]
  inhibitory activity in commercial glioma/GBM cell lines: Comparable results
[3]
  frequency of self-renewing, multipotent cells (primary, secondary, tertiary spheres): considerably reduced frequency
[4]
  survival of animals that received pre-treated pGBMs: significantly increased survival
[5]
  selective reduction of cell growth and viability among CD133+ vs CD133− cells: significantly stronger reduction
[6]
  cellular viability of pGBMs, control levels: below 50%
